Reference: PMC6946680, “Modulation of brain cation-Cl^− cotransport via the SPAK kinase inhibitor ZT-1a” (Nature Communications, 2020)
“And” between values parts separate entries of the source, which are not always exact repeats. Identical values can stand only once.

Tests used:
Type in all cases: cell-based, human
SPAK pSer373 = test: Immunoblot of SPAK/OSR1 p-Ser373/Ser325 in HEK-293 cells
Protocol: (§1) Band intensities were quantitated with ImageJ software. ***p < 0.001; **p < 0.01; *p < 0.05; ns, nonsignificant [by one-way ANOVA with post hoc testing (n = 6, error bars represent the mean ± SEM)].
(§2) Thirty-six hours post transfection, cells were stimulated with either control isotonic or hypotonic medium for a period of 30 min. […] Protein concentrations were determined using the Bradford method. Cells were treated with the indicated concentrations of the SPAK/OSR1 inhibitors.

NKCC1 pThr203/207/212 = test: Immunoblot of NKCC1 p-Thr203/Thr207/Thr212 in HEK-293 cells
Protocol: as §1, §2

KCC3 pThr991 = test: Immunoblot of KCC site 1 phosphorylation (KCC3 Thr991) in HEK-293 cells transfected with FLAG-KCC3
KCC3 pThr1048 = test: Immunoblot of KCC site 2 phosphorylation (KCC3 Thr1048) in HEK-293 cells transfected with FLAG-KCC3
[1] = Hypotonic low Cl, compound concentration 1 (unit not given)
[2] = Hypotonic low Cl, compound concentration 3 (unit not given)
[3] = Hypotonic low Cl, compound concentration 10 (unit not given)
[4] = Isotonic control, compound concentration 1 (unit not given)
[5] = Isotonic control, compound concentration 3 (unit not given)
[6] = Isotonic control, compound concentration 10 (unit not given)

| SMILES | pSer373 / SPAK (SPAK pSer373; [1]) | pSer373 / SPAK (SPAK pSer373; [2]) | pSer373 / SPAK (SPAK pSer373; [3]) | pSer373 / SPAK (SPAK pSer373; [4]) | pSer373 / SPAK (SPAK pSer373; [6]) | pThrNKCC1 / NKCC1 (NKCC1 pThr203/207/212; [1]) | pThrNKCC1 / NKCC1 (NKCC1 pThr203/207/212; [2]) | pThrNKCC1 / NKCC1 (NKCC1 pThr203/207/212; [3]) | pThrNKCC1 / NKCC1 (NKCC1 pThr203/207/212; [4]) | pThrNKCC1 / NKCC1 (NKCC1 pThr203/207/212; [6]) | Site-1 phospho / KCC (KCC3 pThr991; [1]) | Site-1 phospho / KCC (KCC3 pThr991; [2]) | Site-1 phospho / KCC (KCC3 pThr991; [3]) | Site-1 phospho / KCC (KCC3 pThr991; [4]) | Site-1 phospho / KCC (KCC3 pThr991; [5]) | Site-1 phospho / KCC (KCC3 pThr991; [6]) | Site-2 phospho / KCC (KCC3 pThr1048; [1]) | Site-2 phospho / KCC (KCC3 pThr1048; [2]) | Site-2 phospho / KCC (KCC3 pThr1048; [3]) | Site-2 phospho / KCC (KCC3 pThr1048; [4]) | other results |
| --- | --- | --- | --- | --- | --- | --- | --- | --- | --- | --- | --- | --- | --- | --- | --- | --- | --- | --- | --- | --- | --- |
| Cc1cc(C(C#N)c2ccc(Cl)cc2)c(Cl)cc1NC(=O)c1cc(Cl)cc(Cl)c1O (stereo not shown) [ZT-1f] | 0.49 and 0.51 and 0.58 and 0.552 | 0.255 and 0.215 and 0.1963 and 0.207 | 0.059 and 0.041 and 0.05 and 0.046 | 0.221 and 0.274 and 0.241 and 0.291 | 0.031 and 0.026 and 0.028 | 0.511 and 0.43 and 0.48 and 0.55 | 0.144 and 0.139 and 0.1273 and 0.131 | 0.029 and 0.031 and 0.039 and 0.026 | 0.187 and 0.123 and 0.15 and 0.173 | 0.009 and 0.011 and 0.016 and 0.012 | 0.591 and 0.61 and 0.578 and 0.662 | 0.501 and 0.522 and 0.538 and 0.551 | 0.304 and 0.287 and 0.249 and 0.4315 | 0.52 and 0.572 and 0.465 and 0.481 | 0.476 and 0.441 and 0.483 and 0.501 | 0.412 and 0.386 and 0.366 and 0.392 | 0.535 and 0.483 and 0.512 and 0.467 | 0.341 and 0.264 and 0.311 and 0.293 | 0.109 and 0.131 and 0.09 and 0.115 | 0.486 and 0.369 and 0.411 and 0.451 | pSer373 / SPAK (SPAK pSer373; [5]): 0.101 and 0.09 and 0.083 and 0.121; Site-2 phospho / KCC (KCC3 pThr1048; [5]): 0.191 and 0.175 and 0.185 and 0.163; Site-2 phospho / KCC (KCC3 pThr1048; [6]): 0.073 and 0.097 and 0.081 and 0.092 |
| Cc1cc(C(C#N)c2ccc(Cl)cc2)c(Cl)cc1NC(=O)c1cc(F)ccc1O (stereo not shown) [ZT-1g] | 0.101 and 0.097 and 0.112 and 0.0903 | 0.058 and 0.071 and 0.066 and 0.078 | 0.044 and 0.027 and 0.035 and 0.041 | 0.034 and 0.041 and 0.029 and 0.046 | 0.017 and 0.015 and 0.013 and 0.016 | 0.41 and 0.38 and 0.36 and 0.43 | 0.21 and 0.19 and 0.176 and 0.196 | 0.1 and 0.064 and 0.089 and 0.097 | 0.306 and 0.28 and 0.251 and 0.293 | 0.035 and 0.039 and 0.045 and 0.032 | 1.44 and 1.512 and 1.37 and 1.612 | 1.67 and 1.55 and 1.71 and 1.58 | 1.28 and 1.109 and 1.16 and 1.25 | 1.31 and 1.461 and 1.597 and 1.37 | 1.16 and 1.27 and 1.05 and 1.23 | 0.79 and 0.93 and 0.85 and 0.712 | 0.321 and 0.39 and 0.36 and 0.315 | 0.263 and 0.275 and 0.22 and 0.253 | 0.1 and 0.116 and 0.092 and 0.107 | 0.389 and 0.326 and 0.357 and 0.301 | pThrNKCC1 / NKCC1 (NKCC1 pThr203/207/212; [5]): 0.167 and 0.134 and 0.121 and 0.172; Site-2 phospho / KCC (KCC3 pThr1048; [5]): 0.233 and 0.197 and 0.175 and 0.227; Site-2 phospho / KCC (KCC3 pThr1048; [6]): 0.104 and 0.076 and 0.11 and 0.095 |
